Measurements: the supplement of paper PMC10307832

What was measured:
Assay in all cases: relative viability (nuclei count vs DMSO), 5 days (fraction); higher = more cells survive
[1] = system: A-427
Outline: (§1)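 Relative viability equals treated-well nuclei counts divided by vehicle-well nuclei counts. Counts came from 4× images of lung cancer cell lines grown in 1536-well plates for 5 days after pin-tool dosing on the day after seeding. Dosing used one drug alone or a fixed anchor-drug dose plus five library-drug doses (not always all listed) in √10 steps, and values are medians of duplicate plates.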

[2] = system: COR-L 105
Outline: as §1

[3] = system: COR-L23
Outline: as §1

[4] = system: HOP-62
Outline: as §1

[5] = system: LCLC-103H
Outline: as §1

[6] = system: LXF-289
Outline: as §1

[7] = system: NCI-H1395
Outline: as §1

[8] = system: NCI-H1651
Outline: as §1

[9] = system: NCI-H1975
Outline: as §1

[10] = system: NCI-H2023
Outline: as §1

[11] = system: NCI-H2085
Outline: as §1

[12] = system: NCI-H2087
Outline: as §1

[13] = system: NCI-H2170
Outline: as §1

[14] = system: NCI-H2342
Outline: as §1

[15] = system: NCI-H3122
Outline: as §1

[16] = system: NCI-H596
Outline: as §1

[17] = system: NCI-H647
Outline: as §1

[18] = system: NCI-H650
Outline: as §1

[19] = system: RERF-LC-KJ
Outline: as §1

[20] = system: SK-MES-1
Outline: as §1

Question: With `COCC1(CO)C(=O)C2CCN1CC2` (configuration not stated) [PRIMA-1MET] + Nc1ncn([C@H]2C[C@H](O)[C@@H](CO)O2)c(=O)n1 [Decitabine] (partner 2 µM) as the compound, how does the relative viability ([1]; first compound 0.2 µM) read?
Answer: 0.648

Question: And the relative viability ([1]; first compound 0.6325 µM)?
Answer: 0.532

Question: What about the relative viability ([1]; first compound 2 µM) of the same compound?
Answer: 0.621

Question: What about the relative viability ([1]; first compound 6.325 µM) of the same compound?
Answer: 0.568

Question: And the relative viability ([1]; first compound 20 µM)?
Answer: 0.501

Question: What about the relative viability ([2]; first compound 0.2 µM) of the same compound?
Answer: 0.695

Question: And the relative viability ([2]; first compound 0.6325 µM)?
Answer: 0.619

Question: And the relative viability ([2]; first compound 2 µM)?
Answer: 0.551

Question: And the relative viability ([2]; first compound 6.325 µM)?
Answer: 0.597

Question: And the relative viability ([2]; first compound 20 µM)?
Answer: 0.179

Question: And the relative viability ([3]; first compound 0.2 µM)?
Answer: 0.538

Question: And the relative viability ([3]; first compound 0.6325 µM)?
Answer: 0.243

Question: And the relative viability ([3]; first compound 2 µM)?
Answer: 0.397

Question: What about the relative viability ([3]; first compound 6.325 µM) of the same compound?
Answer: 0.439

Question: What about the relative viability ([3]; first compound 20 µM) of the same compound?
Answer: 0.036

Question: What about the relative viability ([4]; first compound 0.2 µM) of the same compound?
Answer: 0.22

Question: And the relative viability ([4]; first compound 0.6325 µM)?
Answer: 0.217

Question: What about the relative viability ([4]; first compound 2 µM) of the same compound?
Answer: 0.207

Question: What about the relative viability ([4]; first compound 6.325 µM) of the same compound?
Answer: 0.203

Question: What about the relative viability ([4]; first compound 20 µM) of the same compound?
Answer: 0.169

Question: What about the relative viability ([5]; first compound 0.2 µM) of the same compound?
Answer: 0.757

Question: What about the relative viability ([5]; first compound 0.6325 µM) of the same compound?
Answer: 0.55

Question: And the relative viability ([5]; first compound 2 µM)?
Answer: 0.685

Question: And the relative viability ([5]; first compound 6.325 µM)?
Answer: 0.78

Question: What about the relative viability ([5]; first compound 20 µM) of the same compound?
Answer: 0.716

Question: And the relative viability ([6]; first compound 0.2 µM)?
Answer: 0.383

Question: What about the relative viability ([6]; first compound 0.6325 µM) of the same compound?
Answer: 0.306

Question: What about the relative viability ([6]; first compound 2 µM) of the same compound?
Answer: 0.349

Question: And the relative viability ([6]; first compound 6.325 µM)?
Answer: 0.373

Question: What about the relative viability ([6]; first compound 20 µM) of the same compound?
Answer: 0.372

Question: What about the relative viability ([7]; first compound 0.2 µM) of the same compound?
Answer: 0.712

Question: What about the relative viability ([7]; first compound 2 µM) of the same compound?
Answer: 0.708

Question: And the relative viability ([7]; first compound 6.325 µM)?
Answer: 0.838

Question: And the relative viability ([7]; first compound 20 µM)?
Answer: 0.67

Question: And the relative viability ([8]; first compound 0.2 µM)?
Answer: 0.616

Question: What about the relative viability ([8]; first compound 0.6325 µM) of the same compound?
Answer: 0.178

Question: And the relative viability ([8]; first compound 2 µM)?
Answer: 0.585

Question: What about the relative viability ([8]; first compound 6.325 µM) of the same compound?
Answer: 0.666

Question: And the relative viability ([8]; first compound 20 µM)?
Answer: 0.6

Question: And the relative viability ([9]; first compound 0.2 µM)?
Answer: 0.389

Question: What about the relative viability ([9]; first compound 0.6325 µM) of the same compound?
Answer: 0.329

Question: And the relative viability ([9]; first compound 2 µM)?
Answer: 0.343

Question: And the relative viability ([9]; first compound 6.325 µM)?
Answer: 0.431

Question: What about the relative viability ([9]; first compound 20 µM) of the same compound?
Answer: 0.371

Question: What about the relative viability ([10]; first compound 0.2 µM) of the same compound?
Answer: 0.211

Question: What about the relative viability ([10]; first compound 0.6325 µM) of the same compound?
Answer: 0.128

Question: And the relative viability ([10]; first compound 2 µM)?
Answer: 0.235

Question: What about the relative viability ([10]; first compound 6.325 µM) of the same compound?
Answer: 0.216

Question: And the relative viability ([10]; first compound 20 µM)?
Answer: 0.209

Question: And the relative viability ([11]; first compound 0.2 µM)?
Answer: 0.59

Question: What about the relative viability ([11]; first compound 0.6325 µM) of the same compound?
Answer: 0.459

Question: What about the relative viability ([11]; first compound 2 µM) of the same compound?
Answer: 0.526

Question: What about the relative viability ([11]; first compound 6.325 µM) of the same compound?
Answer: 0.526

Question: What about the relative viability ([11]; first compound 20 µM) of the same compound?
Answer: 0.198

Question: What about the relative viability ([12]; first compound 0.6325 µM) of the same compound?
Answer: 0.226

Question: And the relative viability ([12]; first compound 2 µM)?
Answer: 0.315

Question: What about the relative viability ([12]; first compound 6.325 µM) of the same compound?
Answer: 0.251

Question: And the relative viability ([12]; first compound 20 µM)?
Answer: 0.174

Question: And the relative viability ([13]; first compound 0.2 µM)?
Answer: 0.42

Question: What about the relative viability ([13]; first compound 0.6325 µM) of the same compound?
Answer: 0.324

Question: What about the relative viability ([13]; first compound 2 µM) of the same compound?
Answer: 0.43

Question: And the relative viability ([13]; first compound 6.325 µM)?
Answer: 0.457

Question: What about the relative viability ([13]; first compound 20 µM) of the same compound?
Answer: 0.457

Question: And the relative viability ([14]; first compound 0.2 µM)?
Answer: 0.671

Question: What about the relative viability ([14]; first compound 0.6325 µM) of the same compound?
Answer: 0.681

Question: What about the relative viability ([14]; first compound 6.325 µM) of the same compound?
Answer: 0.658

Question: What about the relative viability ([14]; first compound 20 µM) of the same compound?
Answer: 0.684

Question: And the relative viability ([15]; first compound 0.2 µM)?
Answer: 0.336

Question: What about the relative viability ([15]; first compound 0.6325 µM) of the same compound?
Answer: 0.288

Question: What about the relative viability ([15]; first compound 2 µM) of the same compound?
Answer: 0.425

Question: And the relative viability ([15]; first compound 6.325 µM)?
Answer: 0.367

Question: And the relative viability ([15]; first compound 20 µM)?
Answer: 0.425

Question: What about the relative viability ([16]; first compound 0.2 µM) of the same compound?
Answer: 1.09

Question: What about the relative viability ([16]; first compound 0.6325 µM) of the same compound?
Answer: 0.855

Question: What about the relative viability ([16]; first compound 2 µM) of the same compound?
Answer: 0.989

Question: What about the relative viability ([16]; first compound 6.325 µM) of the same compound?
Answer: 1.07

Question: What about the relative viability ([16]; first compound 20 µM) of the same compound?
Answer: 0.655

Question: And the relative viability ([17]; first compound 0.2 µM)?
Answer: 0.403

Question: And the relative viability ([17]; first compound 0.6325 µM)?
Answer: 0.236

Question: What about the relative viability ([17]; first compound 2 µM) of the same compound?
Answer: 0.353

Question: What about the relative viability ([17]; first compound 6.325 µM) of the same compound?
Answer: 0.333

Question: And the relative viability ([17]; first compound 20 µM)?
Answer: 0.39

Question: What about the relative viability ([18]; first compound 0.2 µM) of the same compound?
Answer: 0.315

Question: What about the relative viability ([18]; first compound 0.6325 µM) of the same compound?
Answer: 0.255

Question: And the relative viability ([18]; first compound 2 µM)?
Answer: 0.315

Question: What about the relative viability ([18]; first compound 6.325 µM) of the same compound?
Answer: 0.332

Question: And the relative viability ([18]; first compound 20 µM)?
Answer: 0.199

Question: What about the relative viability ([19]; first compound 0.2 µM) of the same compound?
Answer: 0.753

Question: What about the relative viability ([19]; first compound 0.6325 µM) of the same compound?
Answer: 0.617

Question: What about the relative viability ([19]; first compound 2 µM) of the same compound?
Answer: 0.718

Question: What about the relative viability ([19]; first compound 6.325 µM) of the same compound?
Answer: 0.69

Question: What about the relative viability ([19]; first compound 20 µM) of the same compound?
Answer: 0.595

Question: And the relative viability ([20]; first compound 0.2 µM)?
Answer: 0.381

Question: And the relative viability ([20]; first compound 0.6325 µM)?
Answer: 0.32

Question: What about the relative viability ([20]; first compound 2 µM) of the same compound?
Answer: 0.376

Question: What about the relative viability ([20]; first compound 6.325 µM) of the same compound?
Answer: 0.339

Question: And the relative viability ([20]; first compound 20 µM)?
Answer: 0.337
